The nature of the assay: Fluorine removal experiment (residual fluorine concentration of filtrate by ion concentration meter). The settings on record: for removal rate: HF solution 1,000 ppm (experimental value 970 ppm), reacted 30 minutes. The method, then:
In order to confirm the fluorine removal rate using the powder or solution prepared in Examples 1 to 3, a fluorine removal experiment was performed by the following method, and the residual fluorine concentration of the filtrate remaining after the experiment was measured using an ion concentration meter and is shown in Tables 2 to 4. At this time, a Metrohm 930 compact IC Flex model from Metrohm was used as the ion concentration meter.
A 50% hydrofluoric acid (HF) solution with a concentration of 1,000 ppm was prepared, and so that the molar ratio of calcium ion:fluoride ion is 1:2, 2:2, 10.56 g and 21.12 g of the mono calcium citrate powder recovered in Example 1 were mixed with 1 L of water to make a solution, the hydrofluoric acid and the solution were reacted for 30 minutes, and the results are shown in Table 2.
A 50% hydrofluoric acid (HF) solution with a concentration of 1,000 ppm was prepared, 4.75 g, 9.5 g, and 19.1 g of the tricalcium citrate powder recovered in Example 2 were mixed with 1 L of water so that the molar ratio of calcium ion:fluoride ion was 1:2, 2:2, and 4:2 to form a slurry, the hydrofluoric acid and the slurry were reacted for 30 minutes, and the results are shown in Table 3. (Tricalcium citrate (C12H10Ca3O14) contains 3 moles of calcium ions per mole, so ⅓ of the theoretical amount is added.)
A 50% hydrofluoric acid (HF) solution with a concentration of 1,000 ppm was prepared, the solution in which the shells and citric acid were dissolved prepared in Example 3 was mixed with 1 L of water and reacted for 30 minutes, and the results are shown in Table 4.

Where [1] appears, read: molar ratio calcium ion:fluoride ion 1:2.
Setting [2] is: molar ratio calcium ion:fluoride ion 2:2.

The structures appear in SMILES notation. Values joined by “and” are separate entries in the source; they are usually repeats but may differ in a detail not shown here. Equal values may be shown once.

With `O=C([O-])CC(O)(CC(=O)O)C(=O)O.O=C([O-])CC(O)(CC(=O)O)C(=O)O.[Ca+2]` [Example 1, mono calcium citrate], the removal rate is reported as 99.25% under setting [1] and 99.77% under setting [2]. Also, under “summary of Tables 2 and 3”, the “fluorine removal rate (summary)” value was not below 99%.
As for `O=C([O-])CC(O)(CC(=O)[O-])C(=O)[O-].O=C([O-])CC(O)(CC(=O)[O-])C(=O)[O-].[Ca+2].[Ca+2].[Ca+2]` [Example 2, tricalcium citrate], the removal rate is, setting by setting: under setting [1], 97.63%; under setting [2], 98.33%; (molar ratio calcium ion:fluoride ion 4:2) 98.28% and 98.29%.
